Seven compounds from US11052082B2 (priority 2012, dated 2021) can be followed below.

Entries after “also recorded” stand apart in the source; their conditions may differ. Where a name gives a salt, the structure may show the parent alone. Peptide text beside a SMILES is read from it. * marks the point of attachment. Cbz = O=C(OCc1ccccc1)*; CH2F = FC*

For data set [1], the system named is opioid receptor on promyelocytic leukemia cell line HL60. As to the kind of experiment: Opioid receptor expression, HL60. The class given is cell-based, human. As to conditions: 0.3 μg/mL cisplatin; 24 h. As to the method:
(§1) Cells were washed in PBS supplemented with 1% FCS, centrifuged and resuspended in PBS/1% FCS containing naloxone-fluoresceine (0.05 mM, Invitrogen) (Hedin et al., 1997). After 30 min of incubation at RT, the cells were washed twice with PBS/1% FCS, centrifuged and resuspended in icecold PBS/1% FCS. Flowcytometry analysis was performed using FACSCalibur (BD, Heidelberg, Germany).
After staining of cisplatin-treated (+Cisplatin) and untreated cells (−Cisplatin) with naloxone-fluoresceine relative fluorescence intensities were determined flowcytometrically. 2.1-fold increase in opioid receptor expression is shown after subtracting the cells autofluorescence.

Data set [2] concerns A2780 ovarian cancer cells. Kind of data set: Cell death in A2780 ovarian cancer cells. The format is cell-based. The settings on record: 2 μg/mL cisplatin alone; 144 h.
Data set [3] has as its system Pancreatic cancer cells Colo 357. Kind of data set: Cell death in pancreatic cancer cells. The format is cell-based.
The nature of data set [4]: Tolerability (body weight, maximum tolerated dose) in ALL-SCID6 xenograft mice. As to conditions: same regimen as tumour growth study.
For data set [5], the system named is Trastuzumab resistant breast cancer cells JIMT-1. Kind of data set: Apoptosis / cell death in JIMT-1 breast cancer cells. The format is cell-based, human.
For another data set, the system named is ALL-SCID6 xenograft. Kind of data set: Patient-derived ALL-xenograft tumour growth. The class given is in vivo, NOD/SCID/IL2ry null (NSG) mice. As to conditions: D,L-methadone orally day 1-76, 20 up to 120 mg/kg/day; doxorubicin 3 mg/kg i.v. day 46, 53, 60, 76.
For data set [6], the system named is opioid-receptors on BCP-ALL-cell line Tanoue. As to the kind of experiment: Flow cytometric cell surface opioid-receptor expression, Tanoue. The format is cell-based, human. The settings on record: 0.06 μg/mL doxorubicin; 96 h. As for the experimental part:
as §1
(A) Doxorubicin enhances opioid receptor expression on the cells' surface. The BCP-ALL-cell line Tanoue was treated for 96 h with 0.06 μg/mL doxorubicin. After staining of doxorubicin-treated (+Doxo) and untreated cells (−Doxo) with naloxone-fluoresceine relative fluorescence intensities were determined flowcytometrically. X-fold increase in opioid receptor expression is shown after subtracting the cells' autofluorescence (−Doxo) and doxorubicin fluorescence (+Doxo).
On the technique in general: Flow cytometry measures light scatter and fluorescence of single cells or particles in a stream.

The subject of data set [7] is opioid receptor on glioblastoma cell line A172. Kind of data set: Opioid receptor expression, A172. The format is cell-based. The settings on record: 0.1 μg/mL doxorubicin; 106 h. As to the method:
as §1
(A) The glioblastoma cell line A172 was treated for 106 h with 0.1 μg/mL doxorubicin. After staining of doxorubicin-treated (doxorubicin) and untreated cells with naloxone-fluorescein (naloxone) relative fluorescence intensities were determined flowcytometrically. (B) Tabular summary of untreated and doxorubicin control cells, naloxone treated cells, whereas D(naloxone-control) represents the median fluorescence intensities after subtracting the cells' autofluorescence (control).

Another data set deals with glioblastoma cells A172. Kind of data set: Apoptosis / cell death in glioblastoma cells A172. The format is cell-based. As to conditions: for effect on apoptosis induced by combination treatment with D,L-methadone and doxorubicin: 100 μg/mL naloxone or 25 μM IBMX, 3 μg/mL D,L-methadone, 0.3 μg/mL doxorubicin, 120 h.
The nature of data set [8]: Serum concentrations in ALL-SCID6 xenograft mice. The settings on record: male, NOD/SCID/IL2ry null (NSG), mouse, in vivo, 3 mg/kg.
For data set [9], the system named is BCP-ALL-cell line Tanoue. The format is cell-based, human. As to conditions: for effect on apoptosis rates of combination treatment with D,L-methadone and doxorubicin: 3 μg/mL D,L-methadone + 0.06 μg/mL doxorubicin, 60 μg/mL naloxone, 200 μM IBMX or PTX.
The test system of data set [10] is caspase-2, caspase-9, caspase-3, PARP, XIAP, Bcl-xL in BCP-ALL-cell line Tanoue. Kind of data set: Western blot analysis of apoptosis effectors in Tanoue. The class given is cell-based, human. As to conditions: 60 μg/mL naloxone; 96 h. (In general: In western blotting, separated proteins are transferred to a membrane and probed.)
Data set [11] relates to caspases, PARP, XIAP, Bcl-xL in glioblastoma cells A172. Kind of data set: Western blot of apoptosis effectors in A172. The format is cell-based.
The next data set has as its system glioblastoma cells. Kind of data set: Apoptosis / cell death in glioblastoma cells (opioid comparison, naloxone). The settings on record: 60 μg/mL naloxone, 3 μg/mL D,L-methadone, 0.1 μg/mL doxorubicin; 120 h and 144 h. The class given is cell-based.
Data set [12] concerns human T cell leukemia, human acute myeloid leukemia, human B cell precursor leukemia, human B cell leukemia. Kind of data set: Apoptosis in different leukemia cells, D,L-methadone plus cisplatin. The class given is cell-based.
The subject of data set [13] is caspase-8, -9, -3, PARP, XIAP, Bcl-xL in JIMT-1 cells. As to the kind of experiment: Western blot of apoptosis effectors in JIMT-1. The format is cell-based, human. As to conditions: D,L-methadone 10, 3, 1 μg/mL + 0.015 μg/mL doxorubicin; 96 h.
A further data set deals with pre-B-ALL-SCID. As to the kind of experiment: Apoptosis induction in xenograft-derived BCP-ALL cells. The format is cell-based, human. As to conditions: therapeutic concentrations of D,L-methadone alone; moderate opioid-receptor level.
Data set [14] deals with apoptosis pathways in glioblastoma-initiating stem cells. As to the kind of experiment: Western blot of apoptosis pathways in glioblastoma-initiating stem cells. The format is cell-based. The settings on record: 3 μg/mL D,L-methadone + 0.1 μg/mL doxorubicin; 144 h.
For data set [15], the system named is leukemia cancer cells (Nalm-6), pancreatic cancer cells (Colo357), ovarian cancer cells (A2780). Kind of data set: Sensitization for etoposide or cisplatin treatment. As to conditions: 0.03 μg/mL etoposide or 0.3 μg/mL cisplatin; D,L-methadone 10, 3, 1 μg/mL; 120 to 144 h. The class given is cell-based.
Data set [16] concerns BCP-ALL-cell line Tanoue. As to the kind of experiment: Doxorubicin uptake and efflux, Tanoue. The format is cell-based, human.
The next data set deals with U87MG glioblastoma. Kind of data set: U87MG glioblastoma xenograft tumour growth. The format is in vivo, nude-mice. The settings on record: days 19 to 33.
Data set [17] is described as follows: Tolerability (body weight) in U87MG xenograft mice. As to conditions: D,L-methadone 60 to 240 mg/kg/d.
Data set [18] concerns BCP-ALL-cell lines (Tanoue, Reh, Nalm6). Kind of data set: Apoptosis induction in BCP-ALL-cell lines. The format is cell-based, human. As to conditions: D,L-methadone alone; 120 h.
The test system of data set [19] is glioblastoma cell line A172. Kind of data set: Doxorubicin uptake and efflux, A172. The class given is cell-based. The settings on record: 0.3 μg/mL doxorubicin.

With `N.N.[Cl][Pt][Cl]` [cisplatin], the “increase in opioid receptor expression” value in [1] was 2.1 fold. Moreover, the cell death is 90% in [2]; 60% in data set [3] (10 μg/mL alone, 120 h); 70% in data set [3] (10 μg/mL cisplatin alone, 144 h).
On to `COc1cccc2c1C(=O)c1c(O)c3c(c(O)c1C2=O)C[C@@](O)(C(=O)CO)C[C@@H]3O[C@H]1C[C@H](N)[C@H](O)[C@H](C)O1` [doxorubicin], for which the body weight changes in [4] is listed as −4%. The cell death was 70% in data set [5] (0.1 μg/mL doxorubicin alone, 120 h) and 80% in the data set on glioblastoma cells A172 (1 μg/mL doxorubicin alone, 144 h). Besides, in the data set with ALL-SCID6 xenograft, the tumour growth inhibition entry is reported as “significant inhibition of tumour growth”. The opioid-receptor expression result in data set [6] was “strongly increased opioid-receptor expression”. Besides, in [7], the “increase in opioid receptor expression” value was 6 fold. Besides, the “serum concentrations of doxorubicin” value in data set [8] lay in the range of 156 to 198 ng/mL.
On to pertussis toxin [PTX], for which the “effect on apoptosis rates of combination treatment with D,L-methadone and doxorubicin” value (from here on “effect on apoptosis rates”) with BCP-ALL-cell line Tanoue [9] (96 h) is on record as “strongly reduced the apoptosis rates”.
Regarding `CC(C)Cn1c(=O)n(C)c(=O)c2[nH]cnc21` [IBMX, 3-Isobutyl-1-methylxanthine], the “effect on doxorubicin-induced apoptosis” value with BCP-ALL-cell line Tanoue [9] (200 μM IBMX, 0.06 μg/mL doxorubicin, 96 h) was “decreased doxorubicin-induced apoptosis”. Also, the “effect on apoptosis rates” value in the data set on BCP-ALL-cell line Tanoue [9] (96 h) was “strongly reduced the apoptosis rates”. The “effect on apoptosis induced by combination treatment with D,L-methadone and doxorubicin” value in the data set on glioblastoma cells A172 (144 h) is on record as “strongly reduced apoptosis induction”.
As for `C=CCN1CC[C@]23c4c5ccc(O)c4O[C@H]2C(=O)CC[C@@]3(O)[C@H]1C5` [naloxone], the “effect on apoptosis induced by combination treatment with D,L-methadone and doxorubicin” value is listed as “strongly reduced apoptosis; also recorded: strongly inhibits apoptosis induction” in data set [5] (100 μg/mL naloxone, 10 μg/mL D,L-methadone, 0.01 μg/mL doxorubicin, 96 h) and “strongly reduced apoptosis” in the data set with glioblastoma cells A172 (144 h). For the same compound, in data set [10], the “effect on caspase activation and PARP cleavage by D,L-methadone in addition to doxorubicin” value was “drastically reduced the activation of caspase-9, caspase-2 and caspase-3”. Moreover, the “effect on activation of caspase-9, caspase-3 and cleavage of PARP by combination treatment” value in data set [11] (100 μg/mL naloxone, 120 h) is “strongly reduced”. The “effect on apoptosis rates” value with glioblastoma cells is “strongly reduced the apoptosis rates”.
With `CC(C)[C@H](NC(=O)OCc1ccccc1)C(=O)N[C@@H](C)C(=O)N[C@@H](CC(=O)O)C(=O)CF` [zVAD.fmk, benzoylcarbonyl-Val-Ala-Asp-fluoromethylketone] (Cbz-Val-Ala-Asp-CH2F), the “effect on apoptosis induced by cotreatment of D,L-methadone and doxorubicin” value in [5] (50 μmol/L zVAD.fmk, 0.015 μg/mL doxorubicin, 96 h, 120 h) is “blocks apoptosis”; in the data set with glioblastoma cells A172 (50 μmol/L zVAD.fmk, 0.1 μg/mL doxorubicin, 120 h and 144 h), “blocks apoptosis”. Besides, in the data set with BCP-ALL-cell line Tanoue [9] (50 μM zVAD.fmk pre-incubation, 0.06 μg/mL doxorubicin, 120 h), the “effect on cell death after combination treatment with D,L-methadone and doxorubicin” value is “strongly decreased cell death”. Besides, the “effect on apoptosis induced by D,L-methadone in addition to cisplatin” value in [3] (50 μmol/L zVAD.fmk, cisplatin 0.7 or 0.5 μg/mL) is reported as “almost completely inhibited apoptosis”. Also, the “effect on apoptosis induced by D,L-methadone in addition to oxaliplatin” value in data set [3] (50 μmol/L zVAD.fmk, oxaliplatin 3 or 2 μg/mL) is “almost completely inhibited apoptosis”. The “effect on cell death after combination treatment with D,L-methadone and cisplatin” value in [12] (zVAD.fmk pre-incubation) is recorded as “strongly decreased cell death”.
Take `CCC(=O)C(CC(C)N(C)C)(c1ccccc1)c1ccccc1` (racemic) [D,L-methadone, D,L-methadone hydrochloride]: the caspases activation result in data set [13] is “restored deficient caspases activation by doxorubicin”; in data set [11] (D,L-methadone 3, 1 μg/mL + 0.1 μg/mL doxorubicin, 144 h), “restored deficient caspases activation by doxorubicin”. In addition, the body weight changes in data set [4] is recorded as −8%. Moreover, the cell death induction result with pre-B-ALL-SCID is “only be slightly killed”; in [12] (D,L-methadone alone (−CDDP)), “only be killed slightly”; in [18] it was “only be killed slightly”. For the same compound, the “activation of apoptosis pathways” value in [14] is given as “reversed deficient activation of apoptosis pathways by doxorubicin”. Moreover, the “sensitization for etoposide or cisplatin treatment” value in [15] is listed as “sensitizes”. The doxorubicin efflux entry is recorded as “reduced the doxorubicin efflux strongly” in the data set on BCP-ALL-cell line Tanoue [16] (8 h and 24 h after removing doxorubicin); “inhibit the efflux” in [19]. The doxorubicin uptake result was “enhanced doxorubicin concentration in the cells” with BCP-ALL-cell line Tanoue [16] (co-incubation with 0.3 μg/mL doxorubicin, 24 h (0 h)) and “enhance the uptake” in [19] (10 μg/mL D,L-methadone). Also, the “optimum T/C value” in the data set on U87MG glioblastoma (D,L-methadone orally daily, 60 to 120 to 240 mg/kg/d bid) was determined as 49%. Moreover, in the data set on U87MG glioblastoma, the “tumour size vs vehicle” value is reported as “significantly reduced tumour size”. This compound displayed a body weight loss in [17] of 9%.
